Test results published in US10040806B2, “Microbiocidally active benzoxaboroles” (Syngenta Participations AG, priority 2014, dated 2018).

What was measured:
[1] = test system: Mycosphaerella graminicola (Septoria tritici); experiment: Mycosphaerella graminicola (Septoria tritici)/liquid culture (Septoria blotch); assay type: cell-based; conditions: Zymoseptoria tritici, liquid culture, PDB, inhibition of growth determined photometrically 4-5 days after application, read-out: disease control
[2] = test system: Mycosphaerella arachidis (Cercospora arachidicola); experiment: Mycosphaerella arachidis (Cercospora arachidicola)/liquid culture (early leaf spot); assay type: cell-based; conditions: liquid culture, PDB, inhibition of growth determined photometrically 4-5 days after application, read-out: disease control
[3] = test system: Monographella nivalis (Microdochium nivale); experiment: Monographella nivalis (Microdochium nivale)/liquid culture (foot rot cereals); assay type: cell-based; conditions: liquid culture, PDB, inhibition of growth determined photometrically 4-5 days after application, read-out: disease control
Pythium ultimum = experiment: Pythium ultimum/liquid culture (seedling damping off); assay type: cell-based; conditions: Globisporangium ultimum, liquid culture, potato dextrose broth, inhibition of growth determined photometrically 2-3 days after application, read-out: disease control

melting point [°C]	Compound	inhibition of growth at 20 ppm [1] [%]	inhibition of growth at 20 ppm [2] [%]	inhibition of growth at 20 ppm [3] [%]	inhibition of growth at 20 ppm (Pythium ultimum) [%]
97 to 100	CCOc1cc2c(cc1C)COB2O [Compound 38, 6-ethoxy-1-hydroxy-5-methyl-3H-2,1-benzoxaborole]	≥ 80	≥ 80	≥ 80	≥ 80
174 to 176	OB1OCc2cc(Cl)c(O)c(Cl)c21 [Compound 94, 5,7-dichloro-1-hydroxy-3H-2,1-benzoxaborol-6-ol]	≥ 80	≥ 80	≥ 80	≥ 80
109 to 111	CCOc1c(Cl)cc2c(c1Cl)B(O)OC2 [Compound 95, 5,7-dichloro-6-ethoxy-1-hydroxy-3H-2,1-benzoxaborole]	≥ 80	≥ 80	≥ 80	≥ 80
146 to 148	COc1cc(Cl)cc2c1B(O)OC2 [Compound 104, 5-chloro-1-hydroxy-7-methoxy-3H-2,1-benzoxaborole]	≥ 80	≥ 80	≥ 80	≥ 80

Further lines, the compound ahead of its results:

Compound	melting point [°C]	inhibition of growth at 20 ppm [1] [%]	inhibition of growth at 20 ppm [2] [%]	inhibition of growth at 20 ppm [3] [%]	inhibition of growth at 20 ppm (Pythium ultimum) [%]
OB1OCc2cc3c(cc21)OC(F)(F)O3 [Compound 1]	147 to 149	≥ 80	≥ 80	≥ 80	≥ 80
COc1cc2c(cc1Cl)COB2O [Compound 5, 5-chloro-1-hydroxy-6-methoxy-3H-2,1-benzoxaborole]	–	≥ 80	≥ 80	≥ 80	≥ 80
OB1OCc2cc(Cl)c(O)cc21 [Compound 6, 5-chloro-1-hydroxy-3H-2,1-benzoxaborol-6-ol]	194 to 195	≥ 80	≥ 80	≥ 80	≥ 80
CCOc1cc2c(cc1Cl)COB2O [Compound 9, 5-chloro-6-ethoxy-1-hydroxy-3H-2,1-benzoxaborole]	146 to 148	≥ 80	≥ 80	≥ 80	≥ 80
